The record followed here is patent US8772500B2, “TRPV3 modulators” (AbbVie Inc., priority 2011, dated 2014).

In one series the target is T1, human TRPV3 (Homo sapiens, UniProt Q8NET8).
T1 construct: expressed in transfected cells
T1 sequence (Q8NET8 1-790): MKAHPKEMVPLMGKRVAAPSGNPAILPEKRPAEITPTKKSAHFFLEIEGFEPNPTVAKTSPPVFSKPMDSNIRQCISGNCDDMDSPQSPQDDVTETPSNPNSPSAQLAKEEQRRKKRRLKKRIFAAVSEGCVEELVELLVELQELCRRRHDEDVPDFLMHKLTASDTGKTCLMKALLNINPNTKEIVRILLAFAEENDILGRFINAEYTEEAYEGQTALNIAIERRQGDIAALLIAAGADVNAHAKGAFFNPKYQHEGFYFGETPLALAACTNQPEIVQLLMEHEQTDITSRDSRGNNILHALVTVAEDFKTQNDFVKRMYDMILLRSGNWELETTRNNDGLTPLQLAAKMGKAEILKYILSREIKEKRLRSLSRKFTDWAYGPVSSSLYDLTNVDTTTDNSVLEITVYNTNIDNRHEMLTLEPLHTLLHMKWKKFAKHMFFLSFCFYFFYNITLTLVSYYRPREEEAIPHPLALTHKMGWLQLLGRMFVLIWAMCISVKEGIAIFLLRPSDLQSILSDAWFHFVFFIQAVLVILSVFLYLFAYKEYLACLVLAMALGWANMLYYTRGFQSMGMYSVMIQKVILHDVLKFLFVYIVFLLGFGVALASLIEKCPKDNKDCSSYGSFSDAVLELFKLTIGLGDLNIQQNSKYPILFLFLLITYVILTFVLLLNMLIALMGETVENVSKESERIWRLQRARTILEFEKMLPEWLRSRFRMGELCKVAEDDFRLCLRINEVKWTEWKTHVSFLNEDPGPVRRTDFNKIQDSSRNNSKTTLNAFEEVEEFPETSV
The series is described as follows: In vitro antagonism of recombinant human TRPV3 activation (FLIPR Tetra calcium assay, 2-APB as agonist). The class given is cell-based. The following applies: HEK293 cells stably expressing human TRPV3; 2-APB 80 μM; range class; read-out: IC50 (reported range). On the procedure: Test compounds were evaluated for ability to antagonize the activation of recombinant human TRPV3 using FLIPR® Tetra cellular screening. Specifically, on the day prior to the experiment recombinant HEK293 cells that stably express human TRPV3 were removed from tissue culture flasks and plated in growth medium at 20,000 cells/well into Poly-d-lysine coated black/clear 384-well Plate (Corning, 3845) using a Multidrop® dispenser (ThermoScientific, Waltham, Mass.). Prior to the start of the assay, the medium was removed by aspiration, and cells were loaded with 30 μL no-wash FLIPR® Calcium-4 dye (λEX=470-495 nm, λEM=515-575 nm; Molecular Devices, Sunnyvale, Calif.). The cells were then incubated for 90-120 minutes in the dark prior to addition of the test compound.
A double-addition protocol was used. The test compound (i.e., the TRPV3 antagonist) was added at the 10 second time point, followed by the addition of a TRPV3 agonist three minutes later. Each test compound evaluated was first dissolved in DMSO to prepare a 10 mM stock solution. A solution (5×) of the test compound was then prepared in DPBS (Dulbecco's Phosphate Buffered Saline) and 10 μL of that solution was added to the cells at a delivery rate of 40 μL/sec. The TRPV3 agonist used to activate human TRPV3 expressed by the […] was 2-aminoethoxy-diphenyl borate (2-APB; Tocris Cookson, Ellisville, Mo.) at 80 μM. Final assay volume was 50 μL. Total length of an experimental run was 10 minutes.
Changes in fluorescence were measured over time using the FLIPR® instrument. The intensity of the fluorescence was captured and digitally transferred to an interfaced computer. The maximum response minus minimum response was calculated and expressed as the percentage of the maximum 2-APB response in the absence of antagonist. The concentration of 2-APB corresponds to its EC80.
Table 1 reports the IC50 values measured for the test compounds as human TRPV3 antagonists. […] Actual measured values are shown parenthetically after the reported range. In most cases, the values reported are average values from at least two runs (i.e., n≧2).

The nature of series [1]: In vitro human microsomal stability assay. The class given is in vitro ADME. The following applies: 0.5 μM substrate, 0.25 mg/mL microsomal protein, pH 7.4, 37° C., NADPH, 30 minutes. In a few lines:
(§1)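 Metabolic stability is assessed by incubating test compound with liver microsomes at 37 °C in the presence of NADPH. Rat assays use Sprague-Dawley microsomes, while human assays use human microsomes.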

Series [2] in a line: In vitro rat microsomal stability assay. The class given is in vitro ADME, rat (Sprague-Dawley). The following applies: for RAT MICROSOMAL STABILITY (% REMAINING AFTER 30 MINUTES): Sprague-Dawley, 0.5 h, 0.5 μM, pH 7.4. In a few lines: as §1

In the case of `O[C@H](c1ccccn1)[C@]1(c2cccc(C(F)(F)F)c2)C[C@H](O)C1` (relative stereo) [Example 259, cis-3-[(S)-hydroxy(pyridin-2-yl)methyl]-3-[3-(trifluoromethyl)phenyl]-cyclobutanol], the IC50 at human TRPV3 lay within 50 to 500 nM. In series [1], the “HUMAN […] (% REMAINING AFTER 30 MINUTES)” value came to 76%. In series [2] (0.5 μM substrate, 0.25 mg/mL microsomal protein, pH 7.4, 37° C., NADPH, 30 minutes), the “RAT […] (% REMAINING AFTER 30 MINUTES)” value was determined as 73%. Consider `CC1(O)CC(c2cncc(C(F)(F)F)c2)([C@H](O)c2ccccn2)C1` (stereo in doubt) [Example 309, trans-3-[(S)-hydroxy(pyridin-2-yl)methyl]-1-methyl-3-[5-(trifluoromethyl)-pyridin-3-yl]cyclobutanol], for which the half-inhibitory concentration (IC50) at human TRPV3 lay within 1100 to 5000 nM. In addition, the “HUMAN […] (% REMAINING AFTER 30 MINUTES)” value in series [1] was more than 85%. As for `CCN(CC)c1ccc(C2(C(O)c3ccccn3)CCC2)cc1` (centres unmarked) [Example 18, {1-[4-(diethylamino)phenyl]cyclobutyl}(pyridin-2-yl)methanol], the IC50 on human TRPV3 was in the range of 501 to 1000 nM. In addition, in series [2], the “RAT MICROSOMAL STABILITY (% REMAINING AFTER 30 MINUTES)” value was 0.27%. For `OC(c1ncccn1)C1(c2cccc(OC(F)(F)F)c2)CCC1` (centres unmarked) [Example 37, pyrimidin-2-yl{1-[3-(trifluoromethoxy)phenyl]cyclobutyl}methanol], in that order: 501 to 1000 nM and 7.7%.

On to `OC(c1ncccn1)C1(c2ccc(Cl)c(Cl)c2)CCC1` (centres unmarked) [Example 38, [1-(3,4-dichlorophenyl)cyclobutyl](pyrimidin-2-yl)methanol], for which the IC50 on human TRPV3 is 50 to 500 nM. For the same compound, the “RAT MICROSOMAL STABILITY (% REMAINING AFTER 30 MINUTES)” value in series [2] was found to be 9.5%. For `CC(c1cccc(C(F)(F)F)c1)C1(C(O)c2ccccn2)CCC1` (centres unmarked) [Example 54, pyridin-2-yl(1-{1-[3-(trifluoromethyl)phenyl]ethyl}cyclobutyl)methanol] the same measures were more than 20000 nM and 0.21%.

Consider `OC(c1ccccn1)C1(c2ccc(F)c(F)c2)CCOCC1` (centres unmarked) [Example 63, [4-(3,4-difluorophenyl)tetrahydro-2H-pyran-4-yl](pyridin-2-yl)methanol], for which the half-maximal inhibitory concentration (IC50) at human TRPV3 lay in the range of 5100 to 20000 nM. Same read-out and setting: for `OC(c1ccccn1)C1(c2ccc(Cl)cc2)CCOCC1` (centres unmarked) [Example 64, [4-(4-chlorophenyl)tetrahydro-2H-pyran-4-yl](pyridin-2-yl)methanol] the value was 1100 to 5000 nM; for `OC(c1ccccn1)C1(c2ccc(C(F)(F)F)cc2)CCOCC1` (centres unmarked) [Example 65, pyridin-2-yl{4-[4-(trifluoromethyl)phenyl]tetrahydro-2H-pyran-4-yl}-methanol], 1100 to 5000 nM. On the same count and under the same terms, for `OC(CC1(c2ccccc2)CCC1)c1ccccn1` (centres unmarked) [Example 68, 2-(1-phenylcyclobutyl)-1-(pyridin-2-yl)ethanol] the value was 1100 to 5000 nM. The same measure, in the same setting: for `OC(CC1(c2ccc(Cl)cc2)CCC1)c1ccccn1` (centres unmarked) [Example 69, 2-[1-(4-chlorophenyl)cyclobutyl]-1-(pyridin-2-yl)ethanol] the value was 1100 to 5000 nM. Regarding `OC(CC1(c2ccc(F)cc2)CCC1)c1ccccn1` (centres unmarked) [Example 70, 2-[1-(4-fluorophenyl)cyclobutyl]-1-(pyridin-2-yl)ethanol], the IC50 on human TRPV3 lay within 5100 to 20000 nM. Still for that read-out and setting: the figure for `OC(CC1(c2cccc(F)c2)CCC1)c1ccccn1` (centres unmarked) [Example 71, 2-[1-(3-fluorophenyl)cyclobutyl]-1-(pyridin-2-yl)ethanol] is 1100 to 5000 nM; for `OC(CC1(c2cccc(Cl)c2)CCC1)c1ccccn1` (centres unmarked) [Example 72, 2-[1-(3-chlorophenyl)cyclobutyl]-1-(pyridin-2-yl)ethanol] it is 1100 to 5000 nM; for `OC(CC1(c2ccc(Cl)c(Cl)c2)CCC1)c1ccccn1` (centres unmarked) [Example 73, 2-[1-(3,4-dichlorophenyl)cyclobutyl]-1-(pyridin-2-yl)ethanol] it is 1100 to 5000 nM.

Take `OC(c1ccccn1)C1(c2ccc(C(F)(F)F)cc2)CCOC1` (centres unmarked) [Example 78, pyridin-2-yl{3-[4-(trifluoromethyl)phenyl]tetrahydrofuran-3-yl}methanol]: at human TRPV3, the IC50 lay in the range of 1100 to 5000 nM.

For `OC(c1ccccn1)C1(c2cccc(OC(F)(F)F)c2)CCOC1` (centres unmarked) [Example 80, pyridin-2-yl{3-[3-(trifluoromethoxy)phenyl]tetrahydrofuran-3-yl}methanol], on human TRPV3, the IC50 is 1100 to 5000 nM. On the same count and under the same terms, the figure for `OC(c1ccccn1)C1(c2cccc(Cl)c2)COC1` (centres unmarked) [Example 86, [3-(3-chlorophenyl)oxetan-3-yl](pyridin-2-yl)methanol] is 1100 to 5000 nM; for `NC1CCCCC1C(O)C1(c2ccc(C(F)(F)F)cc2)CCC1` (centres unmarked) [Example 207, (2-aminocyclohexyl){1-[4-(trifluoromethyl)phenyl]cyclobutyl}methanol] it is 1100 to 5000 nM.

With `NC1CCCC1C(O)C1(c2cccc(OC(F)(F)F)c2)CCC1` (centres unmarked) [Example 208, (2-aminocyclopentyl){1-[3-(trifluoromethoxy)phenyl]cyclobutyl}methanol], the half-maximal inhibitory concentration (IC50) on human TRPV3 was 1100 to 5000 nM. Besides, the “RAT MICROSOMAL STABILITY (% REMAINING AFTER 30 MINUTES)” value in series [2] is on record as 36%.

For the compound `NC1CCCCC1C(O)C1(c2ccc(OC(F)(F)F)cc2)CCC1` (centres unmarked) [Example 209, (2-aminocyclohexyl){1-[4-(trifluoromethoxy)phenyl]cyclobutyl}methanol], the IC50 on human TRPV3 is 1100 to 5000 nM. Still for that read-out and setting: the figure for `NC1CCCCC1C(O)C1(c2cccc(OC(F)(F)F)c2)CCC1` (centres unmarked) [Example 210, (2-aminocyclohexyl){1-[3-(trifluoromethoxy)phenyl]cyclobutyl}methanol] is 1100 to 5000 nM; for `NC1CCCCC1C(O)C1(c2ccc(Cl)c(Cl)c2)CCC1` (centres unmarked) [Example 211, (2-aminocyclohexyl) [1-(3,4-dichlorophenyl)cyclobutyl]methanol] it is 5100 to 20000 nM.

Turning to `NC1CCCC1C(O)C1(c2ccccc2OC(F)(F)F)CCC1` (centres unmarked) [Example 214, (2-aminocyclopentyl){1-[2-(trifluoromethoxy)phenyl]cyclobutyl}methanol], the IC50 on human TRPV3 lay within 1100 to 5000 nM. Same read-out and setting: for `NC1CCCC1C(O)C1(c2ccc(Cl)c(Cl)c2)CCC1` (centres unmarked) [Example 215, (2-aminocyclopentyl) [1-(3,4-dichlorophenyl)cyclobutyl]methanol] the value was 501 to 1000 nM. Still for that read-out and setting: for `N[C@H]1CCC[C@H]1[C@@H](O)C1(c2ccc(Cl)c(Cl)c2)CCC1` [Example 218, (R)-[(1R,2S)-2-aminocyclopentyl][1-(3,4-dichlorophenyl)cyclobutyl]-methanol] the value was 1100 to 5000 nM; for `N[C@H]1CCC[C@@H]1[C@H](O)C1(c2ccc(Cl)c(Cl)c2)CCC1` [Example 219, (S)-[(1S,2S)-2-aminocyclopentyl][1-(3,4-dichlorophenyl)cyclobutyl]-methanol], 1100 to 5000 nM.

With `CC1(O)CC(c2cccc(OC(F)(F)F)c2)(C(O)c2ccccn2)C1` [Example 263, trans-3-[(S)-hydroxy(pyridin-2-yl)methyl]-1-methyl-3-[3-(trifluoromethoxy)-phenyl]cyclobutanol], on human TRPV3, the IC50 fell in the range of 1100 to 5000 nM. Moreover, the “RAT MICROSOMAL STABILITY (% REMAINING AFTER 30 MINUTES)” value in series [2] is more than 85%.

For the compound `CC1(O)CC(c2ccnc(C(F)(F)F)c2)(C(O)c2ccccn2)C1` [Example 302, cis-3-[(S)-hydroxy(pyridin-2-yl)methyl]-1-methyl-3-[2-(trifluoromethyl)-pyridin-4-yl]cyclobutanol], the IC50 at human TRPV3 fell in the range of 501 to 1000 nM.
